The values that follow come from US9724334B1, “Method for treating a neurodegenerative disease or depression comprising administering derivatives of 2-amino-2-(1-dodecyl-1H-1,2,3-triazol-4-yl)propane-1,3-diol” (Kyungpook National University Industry-Academic Cooperation …, priority 2016, dated 2017).

The subject of assay [1] is APP/PS1 mice. The assay can be described thus: Morris water maze (MWM), learning and memory in APP/PS1 mice. Type of assay: in vivo, mouse. Particulars: 100 mg/kg/day via drinking water; for spatial memory, cognitive and memory formation disability: versus unfed APP/PS1 mice. As to the method:
(§1) To confirm the therapeutic effect of the novel ASM inhibitory compounds, the novel ASM inhibitory compound or AMI were fed via drinking water at a dose of 100 mg/kg/day to mice at 5.5 months of age. Three months after the feeding, behavioral analysis on the mice was performed, followed by sampling of mouse brain tissues (FIG. 3).
Morris water maze (MWM) and fear conditioning experiments were conducted to identify potential effects on learning and memory. For MWM, the mice were learned the task four times a day for 10 days, followed by the removal of the platform at the 11th day and subsequently a probe trial. On the first day of the fear conditioning, the mice were placed in the conditioning chamber and subjected to sound stimulation (10 kHz, 70 dB) and electrical stimulation (0.3 mA, 1s). On the second day, their memory was checked without stimulation in the same conditioning chamber as on the first day. On the third day, memory tests were conducted for fear when only sound stimulation was given in another conditioning chamber. Open field tests and dark & light tests were conducted to assess activity and anxiety. In the open field test, the mice were placed in a square box for 10 minutes to measure their overall activity and time spent wandering the wall and center. In the dark & light test, the mice were placed in a rectangular box composed of a dark box and a bright box for 10 minutes to measure the time spent in each box, the number of round trips, and the time when the mice entered the bright box for the first time.
In order to determine the potential effect of the novel ASM inhibitory compound of the present invention on learning and cognition in the animal models of Alzheimer's disease, the MWM (Morris water maze) and the fear conditioning test were performed, respectively.

Assay [2] concerns the target T1, ASM (acid sphingomyelinase) (Homo sapiens, UniProt P17405).
T1 construct: fibroblasts (PS1 fibroblasts) derived from Alzheimer's disease patients, followed by the measurement of the change of ASM activity; host or cells: human fibroblast cell lines (PS1, from Alzheimer's disease patients)
T1 sequence (P17405 47-631): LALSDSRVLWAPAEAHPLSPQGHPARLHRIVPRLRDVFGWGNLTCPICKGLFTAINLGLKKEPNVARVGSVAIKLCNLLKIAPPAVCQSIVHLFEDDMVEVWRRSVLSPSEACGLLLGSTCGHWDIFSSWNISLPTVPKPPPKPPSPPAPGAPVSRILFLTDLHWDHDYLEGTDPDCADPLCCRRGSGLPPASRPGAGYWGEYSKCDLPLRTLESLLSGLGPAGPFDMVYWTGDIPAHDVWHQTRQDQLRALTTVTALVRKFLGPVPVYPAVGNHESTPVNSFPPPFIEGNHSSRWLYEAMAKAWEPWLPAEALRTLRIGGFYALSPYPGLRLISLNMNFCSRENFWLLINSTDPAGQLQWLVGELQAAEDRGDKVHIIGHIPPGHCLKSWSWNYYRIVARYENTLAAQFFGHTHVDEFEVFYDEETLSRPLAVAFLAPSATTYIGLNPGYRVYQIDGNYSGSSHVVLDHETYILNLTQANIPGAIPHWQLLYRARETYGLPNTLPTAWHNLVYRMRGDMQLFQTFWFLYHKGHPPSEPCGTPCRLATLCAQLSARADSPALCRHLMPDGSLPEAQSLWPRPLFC
The assay can be described thus: ASM activity in fibroblasts derived from Alzheimer's disease patients (PS1 fibroblasts). Particulars: for change of ASM activity: PS1 fibroblasts with increased ASM activity, versus untreated PS1 fibroblasts. Type of assay: cell-based. The arrangement: dose or concentration left out as unconfirmed. The procedure: Human fibroblast cell lines (normal and PS1) were obtained from Coriell Institute and cultured in DMEM containing 15% FBS under the condition of 5% CO2 at 37° C. Subsequently, the cell lines were treated with the ASM inhibitory compound of the Chemical Formula 1, amitriptyline (AMI) and FTY720, followed by measuring the change of ASM activity. The concentration levels of ASM were measured as follows. Specifically, a microliter mouse plasma, brain tissue and 3 μl of fibroblast samples were mixed with ASM activity buffer and stored at 37° C. 114 μl of ethanol was added to terminate the hydrolysis reaction, followed by centrifugation. 30 μl of the supernatant was transferred to a glass vial, of which 5 μl was applied to the UPLC system. The ASM concentration levels were quantified by comparison with Bodipy (aminoacetaldehyde) conjugated with sphingomyelin and ceramide. Extraction and quantification of the sphingomyelin and ceramide were performed by extracting lipids from known method samples and resuspending the dried lipid extract in 25 μl of 0.2% Igepal CA-630 (Sigma-Aldrich). Each lipid level was quantified using the UPLC system. In order to confirm the ASM inhibitory effect of the compound developed according to the present invention, the ASM inhibitory compound of the Chemical Formula 2, AMI and FTY720 were treated […] concentration, respectively, in the fibroblasts (PS1 fibroblasts) derived from Alzheimer's disease patients, followed by the measurement of the change of ASM activity.

Assay [3] concerns APP/PS1 mice. The assay can be described thus: Amyloid-β deposition in brain of APP/PS1 mice (thioflavin S staining, Aβ40 and Aβ42 immunofluorescence). Type of assay: in vivo, mouse. Particulars: 100 mg/kg/day via drinking water; for Aβ40 deposition / Aβ42 deposition: brain tissue immunofluorescence; for Aβ40 deposition / Aβ42 deposition / fibrillary Aβ deposition (thioflavin S): versus APP/PS1 mice; for fibrillary Aβ deposition (thioflavin S): cerebral cortex and hippocampus.
Description: IACUC (Kyungpook National University Institutional Animal Care and Use Committee) approved the present mouse experiment. A transgenic mouse line overexpressing APPswe (hAPP695swe) or PS1 (presenilin-1M146V) was used based on C57BL/6 mouse (Charles River, UK) (hereinafter, APP mouse: APPswe-overexpressing mouse, PS1 mouse: presenilin-1M146V overexpressing mouse; GlaxoSmithKline).
as §1
After fixing the cerebrum and hippocampus of the test mice, 0.5% thioflavin S (Sigma-Aldrich), anti-20G10 antibodies (Mouse, 1:1000) against Aβ, 42 and anti-G30 antibodies (rabbit, 1:1000) against Aβ, 40, anti-GFAP antibodies (rabbit, 1:500, DAKO) were cultured together. The above sites were analyzed using a laser scanning confocal microscope equipped with Fluoview SV1000 imaging software (Olympus FV1000, Japan) or an Olympus BX51 microscope. Percentage of area of stained area to total tissue area was quantified and analyzed using Metamorph software (Molecular Devices).
In order to confirm the effect of the novel ASM inhibitory compound of the Chemical Formula 2 on the lesion of Alzheimer's disease, the ASM inhibitory compound of the Chemical Formula 2 and AMI were administered orally for four months, respectively, as shown in FIG. 3.
To begin with, the profile of Aβ of Alzheimer's disease was identified. First, according to known methods in the art, the cerebral cortex and hippocampus of the mice were stained with thioflavin S (ThioS), confirming the fibrillary amyloid-β deposition. In addition, amyloid-β deposition was confirmed by carrying out the Aβ40 and Aβ42 immunofluorescence.

For `CN(C)CCC=C1c2ccccc2CCc2ccccc21` [AMI, amitriptyline, reference compound], in assay [1], the “spatial memory, cognitive and memory formation disability” value was “improved”. Further, in assay [2], the “change of ASM activity” value is given as “markedly reduced”. Moreover, in assay [3], the Aβ40 deposition result is recorded as “significantly lower”, the Aβ42 deposition entry was “significantly lower” and the “fibrillary Aβ deposition (thioflavin S)” value is “significantly lower”.

Take `CCCCCCCCCCCCn1cc(C(N)(CO)CO)nn1` [Chemical Formula 2, 2-amino-2-(1-dodecyl-1H-1,2,3-triazol-4-yl)propane-1,3-diol]: in assay [1], the “cognitive improvement compared with AMI” value is reported as “more pronounced”; the “spatial memory, cognitive and memory formation disability” value was “improved”. Further, the “ASM inhibitory effect compared with the other substances (AMI, FTY720)” value in assay [2] (PS1 fibroblasts) was “more remarkably effective in inhibiting ASM activity than the other substances”. For the same molecule, in assay [2], the “change of ASM activity” value is reported as “markedly reduced”. In addition, in assay [3], the “amyloid-β deposition compared with mice treated with AMI” value was “more remarkably reduced”, the Aβ40 deposition result is recorded as “significantly lower”, the Aβ42 deposition entry is “significantly lower” and the “fibrillary Aβ deposition (thioflavin S)” value was “significantly lower”.
